What was measured:
AKR1C3 = biological target: T1, AKR1C3 (Homo sapiens, UniProt P42330); assay: Determination of kinetic parameters for AKR1C3 (fluorogenic substrate 5); format: biochemical
T1 construct: gift of Professor Trevor Penning (University of Pennsylvania School of Medicine)
T1 sequence (P42330 1-323): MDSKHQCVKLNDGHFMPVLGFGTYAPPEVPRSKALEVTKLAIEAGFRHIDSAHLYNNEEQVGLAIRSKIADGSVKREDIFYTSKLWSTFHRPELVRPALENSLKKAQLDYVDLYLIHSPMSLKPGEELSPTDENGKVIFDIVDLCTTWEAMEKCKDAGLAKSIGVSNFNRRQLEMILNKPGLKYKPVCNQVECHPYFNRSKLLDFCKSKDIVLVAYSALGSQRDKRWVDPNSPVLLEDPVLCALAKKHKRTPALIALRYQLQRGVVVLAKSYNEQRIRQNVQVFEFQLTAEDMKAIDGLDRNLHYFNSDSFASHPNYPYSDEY
Method: Whether the activity of human enzymes may be imaged by probe 5 was investigated. Type 2 isozyme of 3α-HSD (AKR 1C3) was selected for this study owing to its important physiological role.
Fluorogenic substrate 5 reduction was monitored on a Hitachi F-4500 fluorimeter in Starna quartz cuvettes fluorometrically in 1 mL systems containing 100 mM potassium phosphate pH 6.0 containing excess of NADPH cofactor (250 μM) and various amounts of the substrate (0.1953-50 μM) dissolved in 4% acetonitrile. […] Cuvettes were mixed thoroughly after addition of cofactor, cosolvent, and substrate. Reactions were initiated by the addition of 4 μL of dilute AKR1C3 (115 μg/mL) and were corrected for nonenzymatic rates. All reactions were followed by monitoring the increase in fluorescence of the product alcohol for 5 minutes at λem 510 nm with λex 440 nm (Excitation and emission band pass slits both at 2.5 nm, lamp 900 V) at 37° C. The initial velocities, expressed in units of nanomoles per minute, were calculated according to previously published procedures (Wierzchowski, J.; Dafeldecker, W. P.; Holmquist, B.; Vallee, B. L. Anal. Biochem. 1989, 178, 57-62): initial rate=[nst×(Ft−F0)/(Fst)]/t where Ft and F0 represent the fluorescence at time t and 0, nst is the nanomoles of the product standard, and Fst is the fluorescence resulting from nst of product. Kinetic constants were approximated using the GraFit (Erithacus Software, Surrey, UK) non-linear regression analysis program to fit the untransformed data to a hyperbolic function as originally described (Wilkinson, G. N. Biochem. J. 1961, 80, 324-332), yielding estimated values of kcat, Km, and their associated standard errors.

AKR1C1-AKR1C4 = assay: Substrate tolerance and selectivity across the four human AKR1C isozymes; format: biochemical; settings: AKR1C1-AKR1C4, purified enzymes, NADPH
From the text: AKR1C2 and AKR1C3 Selective Probes: Probes (5a-5i) were examined as substrates for the four purified human HSD isozymes (AKR1C1-AKR1C4) under standard assay conditions [catalytic quantities of enzyme, an excess of cofactor (NADPH)]. The initial reaction rates were used to derive standard kinetic parameters (kcat and Km, Materials and Methods).
Substrate tolerance of AKR1Cs: Isozyme Activity with 5a-5i: Activity of the second generation of fluorogenic substrates with the AKR1C isozymes was determined as follows. To a STARNA semi-micro fluorimeter cell (with 4 polished windows) was added 100 μL of 1 M potassium phosphate buffer (pH 6), 840 μL doubly deionized water, and 20 μL of 12.5 mM NADPH. After mixing the aqueous components thoroughly, 20 μL of acetonitrile was added as a cosolvent and mixed well. 20 μL of 2.5 mM second generation fluorogenic ketone in acetonitrile (5a-5i) was then added and mixed. 4 μL of undiluted AKR1C (provided generously by the Penning lab at concentrations of 2.5 mg/mL) were then added to the cuvette for a total of 10 μg purified enzyme in the 1 mL assay volume. Fluorescence arising from the respective alcohol reduction product was then monitored over the course of 5-10 minutes.
Binding constant and catalytic rates (Km and kcat) of the second generation of fluorogenic substrates was determined as follows. To a STARNA semi-micro fluorometer cell (with 4 polished windows) was added 100 μL of 1 M potassium phosphate buffer (pH 6), 840 μL doubly deionized water, and 20 AL of 12.5 mM NADPH. After mixing the aqueous components thoroughly, 20 μL of acetonitrile was added as a cosolvent and mixed well. […] Fluorescence arising from the respective alcohol reduction product was then monitored over the course of 3 minutes (Excitation and emission band pass slits both at 4 nm, lamp 700 V, λexc 410 nm, λem 510). The rate of product formation, expressed in units of nanomoles per minute, were calculated according to previously published procedures (Wierzchowski, J.; Dafeldecker, W. P.; Holmquist, B.; Vallee, B. L. Anal. Biochem. 1989, 178, 57-62): […]

[1] = 100 mM potassium phosphate pH 6.0, 250 μM NADPH, 37° C.
[2] = Type 2 isozyme of 3α-HSD (AKR 1C3)

## CC(=O)c1cc(=O)oc2c3c4c(cc12)CCCN4CCC3 [compound 5, 8-Acetyl-2,3,5,6-tetrahydro-1H,4H-11-oxa-3a-aza-benzo[de]anthracen-10-one]
AKR1C3; [1]
  Kcat: 0.1374 s⁻¹
  Km: 2.46 µM
  Spec. activity: 0.226 µmol/min/mg
  Vmax: 0.1039 nmol/min
AKR1C3; [2]
  Kcat: 0.137 s⁻¹
  Km: 2.5 µM
AKR1C1-AKR1C4
  acceptance as substrate by the four human isozymes: all four human isozymes catalyzed the reduction

Source: US20100048604A1, “Ligands for Aldoketoreductases” (priority 2004, published 2010)
